The values that follow come from US6207656A, “Vitamin D analogues and their neuronal effects” (Cephalon, Inc., priority 1998, dated 2001).

The nature of data set [1]: Calcemic activity in rats, serum calcium after 7 days oral gavage. Type of data set: in vivo, LEW/MOL female rats. To be noted: for Calcium in Serum: ± S.D.; for Calcemic Activity (%): potency relative to 1α,25(OH)2 D3, rats, p.o. 7 days. The protocol: For determining calcemic activity, LEW/MOL female rats (130-170 g) were administered test compounds daily for 7 days by oral gavage. Control rats received the vehicle. Each group consisted of 3 rats. Blood was collected by cardiac puncture on day 7.

For data set [2] the following is noted: cited from earlier work.
For another data set, the system named is NGF mRNA. As to the kind of experiment: Induction of NGF mRNA expression in rats. It is filed as in vivo, Sprague Dawley rats. The protocol: Five hours after the last dose, the animals were sacrificed by decapitation. Each brain was quickly removed and chilled in ice-cold saline. The brain was cut into 2 mm thick coronal sections. Portions of the hippocampus, encompassing the CA1 region, and the medial septum were removed by punching 2 mm^3 sections using a calibrated tissue punch. Punched sections were immediately frozen on dry ice and then stored at -70° C. RNA was prepared from dissected tissue pieces.
Punches of tissue were homogenized in […] RNAzolB™ (Bioteex Laboratories, Houston, Tex.) using a homogenizer (Tekmar, Germany) until fully homogenized and then 250 μl RNAzilB™ was added. Typically, punches from the corresponding regions of brains of 2 to 3 animals were combined together. RNA was prepared as recommended by the manufacturer (Biotecx Laboratories). Following isopropanol precipitation, RNA was reprecipitated with ethanol and finally resuspended in 25-50 μL of water. Concentration of RNA was measured spectrophotometrically and the quality of RNA was visualized on a nondenaturing agarose gel. Equal amounts of RNA, usually 1-2 μg, were reverse transcribed using Superscript II™ (Gibco BRL), as recommended by the manufacturer. The assay was terminated by incubation at 95° C. 1 min. at 55-60° C. (depending on the primer set) and 2 min. at 72° C. […] After the assay, samples were electrophoresed on 5% nondenaturing acrylamide gels. Gels were dried and the resulting labeled bands were visualized on a phosphorimager (Storm 840, Molecular Dynamics, Sunnyvale, Calif.). The following primers were used: […]
Nerve Growth Factor (NGF). Primers were designed against the rat sequence.

Another data set has as its system CNTF mRNA. In words: Induction of CNTF mRNA expression in rats. Type of data set: in vivo, Sprague Dawley rats. As to the method: Young adult male Sprague Dawley rats (250-350 g) were administered Compound (A), Compound (E), or a vehicle (80% propylene glycol (human formulation grade; Spectrum Quality Products, Inc., Gardena, Calif., catalog #PR130-55003) and 20% phosphate buffer, pH 9.2) at doses ranging from 0.1 to 5.5 μg/kg daily by oral gavage for eight days. Five hours after the last dose, the animals were sacrificed by decapitation. Each brain was quickly removed and chilled in ice-cold saline. The brain was cut into 2 mm thick coronal sections. Portions of the hippocampus, encompassing the CA1 region, and the medial septum were removed by punching 2 mm^3 sections using a calibrated tissue punch. Punched sections were immediately frozen on dry ice and then stored at -70° C. RNA was prepared from dissected tissue pieces.
Punches of tissue were homogenized in […] RNAzolB™ (Bioteex Laboratories, Houston, Tex.) using a homogenizer (Tekmar, Germany) until fully homogenized and then 250 μl RNAzilB™ was added. Typically, punches from the corresponding regions of brains of 2 to 3 animals were combined together. RNA was prepared as recommended by the manufacturer (Biotecx Laboratories). […] Concentration of RNA was measured spectrophotometrically and the quality of RNA was visualized on a nondenaturing agarose gel. […]

The next data set concerns hippocampal ChAT. As to the kind of experiment: Fimbria fornix lesion model, hippocampal ChAT activity. Type of data set: in vivo, rat. To be noted: oral gavage daily 14 days, FIGS. 4 to 8; * p<0.05 vs vehicle-treated lesioned controls. The text has this:
The fimbria fornix lesion model is an established protocol for assessing cholinergic neuronal survival in the basal forebrain. […] Contained within the region of the brain 10 are cholinergic neurons 16. A healthy cholinergic neuron has a cell body 18, and one or more axons 20. Each of the axons 20 have a free end, referred to as a terminal 22, that extends into the hippocampus 14. In the fimbria fornix lesion model, damaged cholinergic neurons 24 are produced by transecting a portion of the axons 20 at a location 26 between the hippocampus 14 and the cell body 18. As a result of this transection, damaged cell bodies 28 are produced that no longer have cholinergic axons 30 and terminals 32. These damaged cell bodies 28, also lose cholinergic cell body markers 34 and stop producing ChAT. The fimbria fornix lesion model is used to study methods of restoring ChAT production, such as through stimulating increased production of ChAT in the healthy cholinergic neurons, and/or through restoring normal functioning of the damaged cholinergic neurons 24.
For the studies described herein, animals were anesthetized with pentobarbital and placed in a stereotaxic apparatus. The skull was opened on the left side, a knife was positioned 1.2 mm posterior to bregma and 0.6 mm lateral to the midline. The knife was lowered to 4.5 mm below the dura into the brain and moved laterally 2 mm partially transecting the fimbria fornix. After 14 days of administration of the test compounds by oral gavage, the hippocampus was removed and homogenized.
(§1) The hippocampal ChAT activity is expressed as a percentage of the hippocampal ChAT activity of the […] control side (i.e., lesion control) in FIGS. 4 to 8.

Data set [3] in a line: Serum calcium in fimbria fornix lesioned rats. Type of data set: in vivo, Sprague Dawley rats. Conditions: oral gavage daily 14 days; data not shown. The protocol: For the fimbria fornix lesion studies, serum calcium was determined by the following method. Sprague Dawley rats (200-300 g) were dosed as described below. Blood was collected from the animals after sacrifice and allowed to clot at room temperature for 3-10 minutes; cells were pelleted in a clinical centrifuge.
as §1

Another data set deals with T1, vitamin D receptor (Gallus gallus, UniProt O42392).
T1 sequence (O42392 1-451): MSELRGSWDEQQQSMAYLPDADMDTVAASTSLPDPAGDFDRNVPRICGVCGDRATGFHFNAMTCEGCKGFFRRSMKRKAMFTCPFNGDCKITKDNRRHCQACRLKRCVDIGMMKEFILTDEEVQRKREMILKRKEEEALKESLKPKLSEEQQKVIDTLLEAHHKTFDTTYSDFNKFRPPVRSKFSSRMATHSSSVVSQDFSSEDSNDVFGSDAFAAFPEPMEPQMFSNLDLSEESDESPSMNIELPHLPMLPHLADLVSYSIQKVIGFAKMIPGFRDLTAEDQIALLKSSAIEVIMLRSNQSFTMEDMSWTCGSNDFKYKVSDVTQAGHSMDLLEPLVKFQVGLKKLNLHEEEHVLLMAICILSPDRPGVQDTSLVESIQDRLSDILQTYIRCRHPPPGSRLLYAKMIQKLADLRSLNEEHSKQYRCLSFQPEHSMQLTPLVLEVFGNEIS
In words: Vitamin D receptor binding (displacement of 3H-1α,25(OH)2D3).

Excerpt for vitamin D receptor: Bound and free ^3 H-1α,25(OH2)D3 were then separated on dextran-coated charcoal, samples were centrifuged and the supernatants containing the receptor-bound ^3 H-1α,25(OH2)D3 were counted in a liquid scintillation counter.

Regarding `C=C1/C(=C\C=C2/CCC[C@]3(C)[C@@H]([C@H](C)CCCC(C)(C)O)CC[C@@H]23)C[C@@H](O)C[C@@H]1O` [1α,25(OH)2 D3, 1,25-dihydroxy vitamin D3, reference compound], the “Calcium in Serum” value is 2.71 ± 0.08 mmol/L in data set [1] (0.5 μg/kg/day p.o., Table 2A (vehicle 2.46 ± 0.06)); 2.66 ± 0.10 mmol/L in data set [1] (0.5 μg/kg/day p.o., Table 2B (vehicle 2.57 ± 0.06)); 2.77 ± 0.03 mmol/L in data set [1] (0.5 μg/kg/day p.o., Table 2C (vehicle 2.68 ± 0.03)); 2.71 ± 0.03 mmol/L in data set [1] (0.5 μg/kg/day p.o., Table 2D (vehicle 2.51 ± 0.09)); 2.71 ± 0.03 mmol/L in data set [1] (0.5 μg/kg/day p.o., Table 2E (vehicle 2.51 ± 0.09)). For the same compound, the “Calcemic Activity (%)” value in data set [1] is reported as 100%. In addition, in data set [2] (background), the “serum calcium levels at doses that induce NGF” value is “increase serum calcium levels at doses that induce NGF”. Besides, in data set [2] (based upon previous data), the “calcemic effect at efficacious doses” value is listed as “calcemic”.

`C=C1/C(=C\C=C2/CCC[C@]3(C)[C@@H]([C@H](C)/C=C/C#CC(O)(CC)CC)CC[C@@H]23)C[C@@H](O)C[C@@H]1O` [Compound (E)]: the “Calcium in Serum” value in data set [1] (0.1 μg/kg/day p.o., Table 2E (vehicle 2.51 ± 0.09)) was 2.41 ± 0.01 mmol/L; in data set [1] (1.0 μg/kg/day p.o., Table 2E (vehicle 2.51 ± 0.09)) it was 2.42 ± 0.04 mmol/L; in data set [1] (10 μg/kg/day p.o., Table 2E (vehicle 2.51 ± 0.09)), 2.38 ± 0.03 mmol/L. In addition, the “Calcemic Activity (%)” value in data set [1] is listed as 20%. Further, the calcemic classification entry in data set [1] (summary statement) is listed as “exemplary of low calcemic vitamin D3 analogues”. Besides, the “production of NGF mRNA” value in the data set on NGF mRNA (0.3, 1.0, 3.0, and 5.5 μg/kg oral, 8 days, rat septum (FIG. 2A)) is “facilitated the production of NGF mRNA”. Further, the “dose dependence of NGF mRNA production” value with NGF mRNA (0.3-5.5 μg/kg, rat septum) is “generally increased with increasing dosage”. In addition, the “production of CTNF mRNA” value in the data set with CNTF mRNA (0.3, 1.0, 3.0, and 5.5 μg/kg oral, 8 days, rat septum (FIG. 2B)) is “facilitated the production of NGF mRNA and CTNF mRNA”. In addition, in the data set on CNTF mRNA (0.3-5.5 μg/kg, rat septum), the “dose dependence of CTNF mRNA production” value is listed as “generally increased with increasing dosage”. Besides, the “hippocampal ChAT activity vs lesioned controls” value in the data set with hippocampal ChAT was “significant increase in CHAT activity”. In addition, the “serum calcium at doses giving the ChAT results” value in data set [3] is “low calcemic dose levels”. On vitamin D receptor, this compound showed a Kd of 0.3 nM.
